{"source": "patent US9040717B2", "about": "“Pyrazole-amide compounds and pharmaceutical use thereof” (JAPAN TOBACCO INC., priority 2013, dated 2015)", "key": {"[1]": {"system": "adipose tissue PDH activity", "assay": "Ex vivo PDH activation assay, adipose tissue", "format": "in vivo, Sprague-Dawley rats", "details": "non-fasting SD rats, vehicle 31 ± 10, mean ± S.D. (n = 3)", "protocol": "(§1) The action of test compound on tissue PDH activity was evaluated. NADH production was detected via p-iodonitrotetrazolium violet (INT)-coupled system to measure PDH activity.\n(§2) Normal male Sprague-Dawley rats were randomly allocated to the vehicle group and the test compound groups. The vehicle (0.5% aqueous methylcellulose solution, 5 mL/kg) or the test compound was orally administered to the rats. At 5 or 20 hr after administration, the rats were anesthetized with an intraperitoneal injection of sodium pentobarbital (60 mg/kg), and liver slices and epididymal adipose tissues were collected.\n(§3) To the adipose tissues were rapidly added 3 volumes of an ice-cold homogenization buffer, and the mixtures were homogenized using a Polytron homogenizer. The homogenates were centrifuged at 600×g, 4° C. for 10 min to obtain the supernatant. The supernatants were centrifuged at 16,000×g, 4° C. for 10 min to collect the precipitates. The precipitates were washed by resuspension in the homogenization buffer (1 mL) and centrifuged in the same manner. The precipitates were frozen with liquid nitrogen and stored at −80° C. as the adipose tissue mitochondrial fraction.\n(§4) The mitochondrial fractions were thawed and suspended with the sample buffer (0.25 mol/L sucrose, 20 mmol/L tris(hydroxymethyl)aminomethane hydrochloride (pH 7.5), 50 mmol/L potassium chloride, and 1 mL/L 4-(1,1,3,3-tetramethylbutyl)phenyl-polyethylene glycol (Triton X-100)). Active PDH activity (PDHa activity) and total PDH activity (PDHt activity) were measured to evaluate the PDH activity. For the measurement of the PDHt activity, equal amounts of the mitochondrial suspension and the activation buffer (0.25 mol/L sucrose, 20 mmol/L tris(hydroxymethyl)aminomethane hydrochloride (pH 7.5), 50 mmol/L potassium chloride, 1 mL/L Triton X-100, 4 mmol/L calcium chloride, 40 mmol/L magnesium chloride, 10 mmol/L sodium dichloroacetate) were mixed, and the mixtures were incubated at 37° C. for 10 min. Forty microliters of the mitochondrial suspensions diluted with a sample buffer were added to a 96-well microplate for activity measurement and blank measurement. Then 180 μL of the reaction mixture (0.056 mmol/L potassium phosphate buffer (pH 7.5), 5.6 mmol/L DL-carnitine, 2.8 mmol/L NAD, 0.22 mmol/L thiamin pyrophosphate, 0.11 mmol/L Coenzyme A, 1.1 mL/L Triton X-100, 1.1 mmol/L magnesium chloride, 1.1 g/L bovine serum albumin, 0.67 mmol/L INT, 7.2 μmol/L phenazine methosulfate, 28 mmol/L sodium oxamate) was added to each well, and then 20 μL of 50 mmol/L sodium pyruvate for activity measurement or water for blank measurement were added. The mixtures were incubated at room temperature under shading. The absorbances at 500-750 nm, which were attributable to reduction of INT, the final electron acceptor, were measured using a microplate reader over time and the changes in the absorbance were calculated. The PDH activity was calculated by subtraction of the change in absorbance of the blank well from that of the activity measurement well. The percentage of the PDHa activity to the PDHt activity was calculated and taken as an index of the PDH activation."}, "human PDHK1 (hPDHK1)": {"target": "human PDHK1 (hPDHK1) (Homo sapiens (Human), UniProt Q15118)", "sequence (Q15118 29-436)": "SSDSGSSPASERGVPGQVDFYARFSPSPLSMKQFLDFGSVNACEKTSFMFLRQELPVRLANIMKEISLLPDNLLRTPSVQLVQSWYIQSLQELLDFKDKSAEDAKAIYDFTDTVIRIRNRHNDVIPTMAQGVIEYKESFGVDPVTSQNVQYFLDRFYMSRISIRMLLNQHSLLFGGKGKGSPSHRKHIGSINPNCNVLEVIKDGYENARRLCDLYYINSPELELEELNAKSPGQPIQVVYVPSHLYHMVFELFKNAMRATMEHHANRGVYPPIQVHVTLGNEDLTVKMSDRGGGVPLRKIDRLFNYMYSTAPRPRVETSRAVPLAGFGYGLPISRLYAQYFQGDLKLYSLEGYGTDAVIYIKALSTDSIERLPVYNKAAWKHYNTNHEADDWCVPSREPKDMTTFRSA", "assay": "Inhibitory action of PDHK1 activity in vitro (residual PDH activity after kinase reaction)", "format": "biochemical", "protocol": "(§5) The inhibitory action of PDHK activity was assessed indirectly by measuring the residual PDH activity after kinase reaction in the presence of a test compound.\nThe recombinant construct was transformed into Escherichia coli (DH5α-TOYOBO). The recombinant clones were identified, and plasmid DNA was isolated and subjected to the DNA sequence analysis. One clone which had the expected nucleic acid sequence was selected for expression work.\nThe Escherichia coli were grown to an optical density 0.6 ([…]) at 30° C. Protein expression was induced by the addition of 500 μmol/L isopropyl-β-thiogalactopyranoside. The Escherichia coli were cultured at 30° C. for 5 hr and harvested by centrifugation. Resuspension of the Escherichia coli paste was disrupted by a microfluidizer.\nThe eluted fractions containing FLAG-Tagged protein were pooled, dialyzed against 20 mmol/L HEPES-NaOH, 150 mmol/L sodium chloride, 0.5 mmol/L ethylenediamine tetraacetic acid (EDTA), 1% ethylene glycol, and 0.1% Pluronic F-68 (pH 8.0), and preserved at −80° C.\nThe mixture was incubated at room temperature for 90 min, and the residual PDH activity was measured.\nThe absorbance at 340 nm before and after PDH reaction was measured using a microplate reader to detect NADH produced by the PDH reaction."}, "human PDHK2 (hPDHK2)": {"target": "human PDHK2 (hPDHK2) (Homo sapiens (Human), UniProt Q15119)", "assay": "Inhibitory action of PDHK2 activity in vitro (residual PDH activity after kinase reaction)", "format": "biochemical", "details": "monohydrate", "protocol": "as §5\nIn the case of human PDHK2 (hPDHK2, Genbank Accession No. BC040478.1), modified hPDHK2 cDNA wherein FLAG-Tag sequence was added to the N terminus of hPDHK2 cDNA clone (pReceiver-M01/PDK2-GeneCopoeia) was prepared by PCR and cloned into a vector (pET17b-Novagen). The recombinant construct was transformed into Escherichia coli (DH5α-TOYOBO). The recombinant clones were identified, and plasmid DNA was isolated and subjected to the DNA sequence analysis. One clone which had the expected nucleic acid sequence was selected for expression work.\nFor expression of hPDHK2 activity, Escherichia coli strain BL21(DE3) cells (Novagen) were transformed with the pET17b vector containing modified hPDHK2 cDNA. The Escherichia coli were grown to an optical density 0.6 ([…]) at 30° C. Protein expression was induced by the addition of 500 μmol/L isopropyl-β-thiogalactopyranoside. The Escherichia coli were cultured at 30° C. for 5 hr and harvested by centrifugation. Resuspension of the Escherichia coli paste was disrupted by a microfluidizer. FLAG-Tagged protein was purified using FLAG affinity gel. […]\n0.05 U/mL PDH and 0.8 μg/mL hPDHK2 were mixed in a buffer (50 mmol/L 3-morpholinopropanesulfonic acid (pH 7.0), 20 mmol/L dipotassium hydrogen phosphate, 60 mmol/L potassium chloride, 2 mmol/L magnesium chloride, 0.4 mmol/L EDTA, and 0.2% Pluronic F-68, 2 mmol/L dithiothreitol), and the mixture was incubated at 4° C. overnight to obtain a PDH/hPDHK2 complex. […] The mixture was incubated at room temperature for 90 min, and the residual PDH activity was measured. The absorbance at 340 nm before and after PDH reaction was measured using a microplate reader to detect NADH produced by the PDH reaction. The hPDHK2 inhibition rate (%) of the test compound was calculated from the formula [{(PDH activity of test compound−PDH activity of control)/PDH activity of blank−PDH activity of control)}×100]."}, "liver PDH activity": {"system": "liver PDH activity", "assay": "Ex vivo PDH activation assay, liver", "format": "in vivo, Sprague-Dawley rats", "details": "non-fasting SD rats, vehicle 13 ± 3, mean ± S.D. (n = 3)", "protocol": "as §1, §2\nas §3, with “liver slices” for “adipose tissues”, “9” for “3”, “of” for “of an”, “buffer (0.25 mol/L sucrose, 5 mmol/L tris(hydroxymethyl)aminomethane hydrochloride (pH 7.5), 2 mmol/L EDTA),” for “buffer,”, “supernatants (1 mL)” for “supernatants”, “liver” for “adipose tissue”\nas §4"}, "[2]": {"details": "Table 2, 5 hr after oral 3 mg/kg"}, "[3]": {"details": "Table 2, 20 hr after oral 3 mg/kg"}}, "data": [{"molecule": "CC(C)(O)CCOc1cc(-c2cnn(C(C)(C)C(N)=O)c2)c2c(c1)[C@@](O)(C(F)(F)F)c1ccccc1-2", "note": "[Compound (2h), 2-{4-[(9R)-9-hydroxy-2-(3-hydroxy-3-methylbutyloxy)-9-(trifluoromethyl)-9H-fluoren-4-yl]-1H-pyrazol-1-yl}-2-methylpropanamide monohydrate]", "values": [{"measurement": "PDHa activity (% of PDHt activity)", "setting": "[1]; [2]", "value": "59 ± 2 % of PDHt activity"}, {"measurement": "PDHa activity (% of PDHt activity)", "setting": "[1]; [3]", "value": "44 ± 12 % of PDHt activity"}, {"measurement": "IC50", "setting": "human PDHK1 (hPDHK1)", "value": 6.6, "unit": "nM"}, {"measurement": "IC50", "setting": "human PDHK2 (hPDHK2)", "value": 4.9, "unit": "nM"}, {"measurement": "PDHa activity (% of PDHt activity)", "setting": "liver PDH activity; [2]", "value": "59 ± 6 % of PDHt activity"}, {"measurement": "PDHa activity (% of PDHt activity)", "setting": "liver PDH activity; [3]", "value": "31 ± 5 % of PDHt activity"}]}]}
